“And” between values parts separate entries of the source, which are not always exact repeats. Equal values may be shown once. Where a name gives a salt, the structure may show the parent alone. Read-outs that look alike come from different tables or passages of the source. Where only a bound is given, the exact number is not on record here.

From patent US10975056B2 (GlaxoSmithKline Intellectual Property Development Limited, priority 2016, dated 2021) come the findings set out here.

One test deals with DNMT1 (Homo sapiens, UniProt P26358). Briefly: DNMT1 biochemical activity, breaklight assay and/or SPA assay.
Test [1] has as its system erythroid progenitor cells (EPCs). Briefly: Fetal hemoglobin (HbF) ELISA in day 7 erythroid progenitor cells.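 Further: for fetal hemoglobin induction normalized to vehicle-treated cells.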 It is filed as cell-based, human. The conditions noted are these: Homo sapiens, Erythroid progenitor cell, HbF ELISA, day 7 EPCs, 5 days; read-out: EPC ELISA (pEC50 category) (converted). An outline of the steps: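 Day 7 EPCs from human bone marrow CD34+ cells were plated at 1,000 cells/well in media with 3 U/mL rhEPO. They were exposed to a 22-point dilution ([…]) for 5 days at 37 °C. Lysate HbF was measured by sandwich ELISA (OD450) and normalized to DMSO control wells.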
In general terms: An ELISA detects its analyte on a solid surface through an enzyme-linked reagent.

Where [2] appears, read: binned activity in either the breaklight or the SPA assay, read-out: DNMT1 BioChemical (pIC50 category) (converted).
Setting [3] is: binned activity in either the breaklight or the SPA assay.
Where [4] appears, read: breaklight assay and/or SPA assay, repeated experimental runs, read-out: average pIC50 against DNMT1 (converted).
The mark [5] stands for this setting: breaklight assay and/or SPA assay, repeated experimental runs.

DNMT1, sequence (P26358 whole entry, looked up): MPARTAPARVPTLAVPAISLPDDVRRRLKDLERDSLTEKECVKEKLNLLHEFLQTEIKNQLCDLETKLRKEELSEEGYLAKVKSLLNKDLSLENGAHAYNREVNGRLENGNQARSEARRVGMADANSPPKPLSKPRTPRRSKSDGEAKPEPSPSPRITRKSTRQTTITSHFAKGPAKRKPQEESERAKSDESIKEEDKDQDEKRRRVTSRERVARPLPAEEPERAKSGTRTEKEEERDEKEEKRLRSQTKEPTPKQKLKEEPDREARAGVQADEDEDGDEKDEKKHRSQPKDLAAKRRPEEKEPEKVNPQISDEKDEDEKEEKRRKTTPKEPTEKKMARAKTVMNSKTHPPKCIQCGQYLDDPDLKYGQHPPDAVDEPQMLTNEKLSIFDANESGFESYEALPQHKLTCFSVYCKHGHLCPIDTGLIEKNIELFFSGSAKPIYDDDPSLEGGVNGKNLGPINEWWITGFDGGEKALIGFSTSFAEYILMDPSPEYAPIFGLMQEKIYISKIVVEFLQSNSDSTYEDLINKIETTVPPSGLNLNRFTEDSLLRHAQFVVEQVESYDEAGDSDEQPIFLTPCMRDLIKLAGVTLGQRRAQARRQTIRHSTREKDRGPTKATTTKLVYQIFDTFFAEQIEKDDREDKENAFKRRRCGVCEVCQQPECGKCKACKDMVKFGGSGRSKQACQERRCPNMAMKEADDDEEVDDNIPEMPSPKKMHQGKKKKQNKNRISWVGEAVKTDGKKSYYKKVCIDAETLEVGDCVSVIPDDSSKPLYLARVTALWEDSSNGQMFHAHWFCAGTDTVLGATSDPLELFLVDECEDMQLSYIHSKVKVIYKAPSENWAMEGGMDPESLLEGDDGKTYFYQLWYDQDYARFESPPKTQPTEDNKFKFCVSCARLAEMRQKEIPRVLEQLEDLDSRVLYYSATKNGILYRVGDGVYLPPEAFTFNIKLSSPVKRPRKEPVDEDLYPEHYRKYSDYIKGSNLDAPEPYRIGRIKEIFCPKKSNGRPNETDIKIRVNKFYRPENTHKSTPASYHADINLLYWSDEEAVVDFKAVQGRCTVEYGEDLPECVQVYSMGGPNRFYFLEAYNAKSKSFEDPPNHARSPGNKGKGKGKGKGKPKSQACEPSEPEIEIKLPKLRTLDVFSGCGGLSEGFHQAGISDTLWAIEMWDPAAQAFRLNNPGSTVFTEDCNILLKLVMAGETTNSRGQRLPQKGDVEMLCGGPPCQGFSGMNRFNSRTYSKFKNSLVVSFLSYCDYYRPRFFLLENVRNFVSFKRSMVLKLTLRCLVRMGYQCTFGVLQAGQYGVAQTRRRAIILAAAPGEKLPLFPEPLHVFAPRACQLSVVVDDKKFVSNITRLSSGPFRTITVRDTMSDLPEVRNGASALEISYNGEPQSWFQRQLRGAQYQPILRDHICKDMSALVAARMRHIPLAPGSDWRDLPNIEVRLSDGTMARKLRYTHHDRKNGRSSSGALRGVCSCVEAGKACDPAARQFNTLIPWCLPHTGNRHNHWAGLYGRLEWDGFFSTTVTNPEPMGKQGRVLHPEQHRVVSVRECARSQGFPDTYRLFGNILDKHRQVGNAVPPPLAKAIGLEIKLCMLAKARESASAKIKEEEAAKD

Take `CCc1c(C#N)c(SCc2ccc(NS(C)(=O)=O)c(F)c2)nc(N2CCCN(C)CC2)c1C#N` [Example 361, N-(4-(((3,5-Dicyano-4-ethyl-6-(4-methyl-1,4-diazepan-1-yl)pyridin-2-yl)thio)methyl)-2-fluorophenyl)methanesulfonamide]: the IC50 on DNMT1 (setting [2]) was 316 to 1000 nM. Besides, the EC50 in test [1] is 1000 to 31600 nM.
For `CCc1c(C#N)c(SC(C(N)=O)c2ccccc2)nc(N(C)CCNC(=O)C(C)(C)N)c1C#N` (stereo not drawn) [Example 627, 2-amino-N-(2-((6-((2-amino-2-oxo-1-phenylethyl)thio)-3,5-dicyano-4-ethylpyridin-2-yl)(methyl)amino)ethyl)-2-methylpropanamide] the same measures were less than 316 nM and less than 316 nM.
Take `CCc1c(C#N)c(SC(C(N)=O)c2ccccc2)nc(N2CCC(N3C(=O)CCC3=O)CC2)c1C#N` (stereo not drawn) [Example 252, 2-((3,5-Dicyano-6-(4-(2,5-dioxopyrrolidin-1-yl)piperidin-1-yl)-4-ethylpyridin-2-yl)thio)-2-phenylacetamide]: at DNMT1 (setting [3]), the “DNMT1 BioChemical (pIC50 category)” value was “D (Category D: ≥6.5)”. Moreover, the EC50 in test [1] was less than 316 nM.
As for `CCc1c(C#N)c(SC(C(N)=O)c2ccc(F)cc2)nc(N2CCNCC2)c1C#N` (stereo not drawn) [Example 196, 2-((3,5-Dicyano-4-ethyl-6-(piperazin-1-yl)pyridin-2-yl)thio)-2-(4-fluorophenyl)acetamide, Trifluoroacetic Acid Salt], on DNMT1 (setting [3]), the “DNMT1 BioChemical (pIC50 category)” value is given as “D (Category D: ≥6.5)”. Also, the EC50 in test [1] was less than 316 nM.
Take `CCc1c(C#N)c(SC(C(N)=O)c2ccnc(F)c2)nc(N2CCCN(C)CC2)c1C#N` (stereo not drawn) [Example 239, 2-((3,5-Dicyano-4-ethyl-6-(4-methyl-1,4-diazepan-1-yl)pyridin-2-yl)thio)-2-(2-fluoropyridin-4-yl)acetamide]: the IC50 at DNMT1 (setting [2]) was 1000 to 31600 nM. The EC50 in test [1] was greater than 31600 nM.
As to `CCc1c(C#N)c(SCc2ccc(N(C)S(C)(=O)=O)cc2)nc(N(C)CCNCCOC)c1C#N` [Example 480], the “DNMT1 BioChemical (pIC50 category)” value on DNMT1 (setting [3]) was “D (Category D: ≥6.5)”. Also, the EC50 in test [1] is 316 to 1000 nM.
Take `CC1(N)CCN(c2nc(SC(C(N)=O)c3ccccc3)c(C#N)c(C3CC3)c2C#N)CC1` (stereo not drawn) [Example 321, 2-((6-(4-Amino-4-methylpiperidin-1-yl)-3,5-dicyano-4-cyclopropvlpyridin-2-yl)thio)-2-phenylacetamide]: at DNMT1 (setting [3]), the “DNMT1 BioChemical (pIC50 category)” value is on record as “D (Category D: ≥6.5)”. In addition, in test [1], the EC50 is less than 316 nM.
For `CCc1c(C#N)c(SC(C(N)=O)c2ccccc2)nc(N2CCN(C(C)(C)CO)CC2)c1C#N` (stereo not drawn) [Example 189], the IC50 at DNMT1 (setting [2]) is 316 to 1000 nM. In test [1], the EC50 was 316 to 1000 nM.
Turning to `CCc1c(C#N)c(SC(C(N)=O)c2ccccc2)nc(N2CC3NCCOC3C2)c1C#N` (stereo not drawn) [Example 204, 2-((3,5-Dicyano-4-ethyl-6-(hexahydropyrrolo[3,4-b][1,4]oxazin-6(2H)-yl)pyridin-2-yl)thio)-2-phenylacetamide], the IC50 at DNMT1 (setting [2]) is 316 to 1000 nM. In addition, in test [1], the EC50 was 1000 to 31600 nM.
In the case of `CCc1c(C#N)c(SCc2ccc(CN)cc2)nc(N(C)C)c1C#N` [Example 272, 2-((4-(Aminomethyl)benzyl)thio)-6-(dimethylamino)-4-ethylpyridine-3,5-dicarbonitrile, Hydrochloride], on DNMT1 (setting [2]), the IC50 is 1000 to 31600 nM. Further, in test [1], the EC50 is greater than 31600 nM.
As to `CCc1c(C#N)c(SCc2ccc(N(C)S(C)(=O)=O)cc2)nc(N2CCC(NC(=O)C(C)(C)N)CC2)c1C#N` [Example 572, 2-amino-N-(1-(3,5-dicyano-4-ethyl-6-((4-(N-methylmethylsulfonamido)benzyl)thio)pyridin-2-yl)piperidin-4-yl)-2-methylpropanamide], the “DNMT1 BioChemical (pIC50 category)” value at DNMT1 (setting [3]) is “D (Category D: ≥6.5)”. The EC50 in test [1] was less than 316 nM.
With `CN(CC(=O)N1CC(O)C1)c1nc(SC(C(N)=O)c2ccccc2)c(C#N)c(C2CC2)c1C#N` (stereo not drawn) [Example 392, 2-((3,5-Dicyano-4-cyclopropyl-6-((2-(3-hydroxyazetidin-1-yl)-2-oxoethyl) (methyl)amino)pyridin-2-yl)thio)-2-phenylacetamide], the “DNMT1 BioChemical (pIC50 category)” value on DNMT1 (setting [3]) is on record as “D (Category D: ≥6.5)”. The EC50 in test [1] was 316 to 1000 nM.
As to `CCc1c(C#N)c(SCc2ccc(CN3CCCC3=O)cc2)nc(N2CCCN(C)CC2)c1C#N` [Example 269, 4-Ethyl-2-(4-methyl-1,4-diazepan-1-yl)-6-((4-((2-oxopyrrolidin-1-yl)methyl)benzyl)thio)pyridine-3,5-dicarbonitrile], on DNMT1 (setting [2]), the IC50 is 1000 to 31600 nM. Besides, in test [1], the EC50 is 1000 to 31600 nM.
For the compound `CCc1c(C#N)c(SCc2ccc(N(C)S(=O)(=O)C(F)F)cc2)nc(N2CCCN(C)CC2)c1C#N` [Example 602, N-(4-(((3,5-dicyano-4-ethyl-6-(4-methyl-1,4-diazepan-1-yl)pyridin-2-yl)thio)methyl)phenyl)-1,1-difluoro-N-methylmethanesulfonamide], the IC50 at DNMT1 (setting [2]) was 316 to 1000 nM; on DNMT1 (setting [4]) it was 316 to 1000 nM and 501 nM. For the same compound, the EC50 in test [1] was less than 316 nM.
Consider `CCc1c(C#N)c(SC(C(N)=O)c2ccccc2)nc(N2CCC(NCC(C)(C)C)C(F)C2)c1C#N` (stereo not drawn) [Example 409, 2-((3,5-dicyano-4-ethyl-6-(3-fluoro-4-A(neopentylamino)piperidin-1-yl)pyridin-2-yl)thio)-2-phenylacetamide], for which, at DNMT1 (setting [3]), the “DNMT1 BioChemical (pIC50 category)” value is recorded as “D (Category D: ≥6.5)”. Also, the “average pIC50 against DNMT1” value at DNMT1 (setting [5]) is given as greater than 6.5. Besides, the IC50 at DNMT1 (setting [4]) was 158 nM. Moreover, the EC50 in test [1] was less than 316 nM.
On to `CN(CCN)c1nc(SC(C(N)=O)c2ccccc2)c(C#N)c(C2CC2)c1C#N` (stereo not drawn) [Example 373, 2-((6-((2-Aminoethyl)(methyl)amino)-3,5-dicyano-4-cyclopropylpyridin-2-yl)thio)-2-phenylacetamide, Hydrochloride], for which, on DNMT1 (setting [3]), the “DNMT1 BioChemical (pIC50 category)” value is reported as “D (Category D: ≥6.5)”. Besides, the EC50 in test [1] was 316 to 1000 nM.
Take `CCc1c(C#N)c(SC(C(N)=O)c2ccccc2)nc(N2CCC(NC(=O)CN)CC2)c1C#N` (stereo not drawn) [Example 137, 2-Amino-N-(1-(6-((2-amino-2-oxo-1-phenylethyl)thio)-3,5-dicyano-4-ethylpyridin-2-yl)piperidin-4-yl)acetamide, Trifluoroacetic Acid Salt]: on DNMT1 (setting [3]), the “DNMT1 BioChemical (pIC50 category)” value is “D (Category D: ≥6.5)”. Moreover, the “average pIC50 against DNMT1” value on DNMT1 (setting [5]) was greater than 6.5. Also, the EC50 in test [1] was 316 to 1000 nM.
Regarding `CCOc1c(C#N)c(SC(C)C(N)=O)nc(N2CCCN(CCO)CC2)c1C#N` (stereo not drawn) [Example 212, 2-((3,5-Dicyano-4-ethoxy-6-(4-(2-hydroxyethyl)-1,4-diazepan-1-yl)pyridin-2-yl)thio)propanamide], at DNMT1 (setting [2]), the IC50 is 316 to 1000 nM. In addition, in test [1], the EC50 was 1000 to 31600 nM.
Consider `CCc1c(C#N)c(SC(C(N)=O)c2ccccc2F)nc(N2CC[C@H](O)C2)c1C#N` (stereo partly drawn) [Example 682, 2-((3,5-dicyano-4-ethyl-6-((S)-3-hydroxypyrrolidin-1-yl)pyridin-2-yl)thio)-2-(2-fluorophenyl)acetamide], for which the “DNMT1 BioChemical (pIC50 category)” value on DNMT1 (setting [3]) is given as “D (Category D: ≥6.5)”. Besides, in test [1], the EC50 was 1000 to 31600 nM.
Regarding `CCc1c(C#N)c(SCc2ccc(OCCN(C)C)cc2)nc(N2CCCN(C)CC2)c1C#N` [Example 377, 2-(4-(2-(Dimethylamino)ethoxy)benzylthio)-4-ethyl-6-(4-methyl-1,4-diazepan-1-yl)pyridine-3,5-dicarbonitrile], the results for the IC50 on DNMT1 (setting [2]) and on DNMT1 (setting [4]) were 1000 to 31600 nM and no less than 1000 nM, respectively. Also, the EC50 in test [1] is greater than 31600 nM.
Turning to `CCc1c(C#N)c(SC(C(N)=O)c2ccccc2)nc(N2CCC[C@H](NC3CC3)C2)c1C#N` (stereo partly drawn) [Example 684, 2-((3,5-dicyano-6-((S)-3-(cyclopropylamino)piperidin-1-yl)-4-ethylpyridin-2-yl)thio)-2-phenylacetamide], at DNMT1 (setting [3]), the “DNMT1 BioChemical (pIC50 category)” value was “D (Category D: ≥6.5)”. Further, in test [1], the EC50 is less than 316 nM.
Regarding `CCc1c(C#N)c(SC(C(N)=O)c2ccccc2)nc(N2CC(O)C2)c1C#N` (stereo not drawn) [Example 146, 2-((3,5-Dicyano-4-ethyl-6-(3-hydroxyazetidin-1-yl)pyridin-2-yl)thio)-2-phenylacetamide], the “DNMT1 BioChemical (pIC50 category)” value on DNMT1 (setting [3]) is “D (Category D: ≥6.5)”. The EC50 in test [1] is 316 to 1000 nM.
Turning to `CCc1c(C#N)c(SCc2ccc(N)cc2)nc(N2CCCN(C)CC2)c1C#N` [Example 297, 2-((4-Aminobenzyl)thio)-4-ethyl-6-(4-methyl-1,4-diazepan-1-yl)pyridine-3,5-dicarbonitrile], at DNMT1 (setting [2]), the IC50 was 316 to 1000 nM. The EC50 in test [1] is greater than 31600 nM.
As for `CCc1c(C#N)c(SCc2ccc(CNC(C)=O)cc2)nc(N2CCC(OCCOC(=O)[C@@H](N)C(C)C)CC2)c1C#N` [Example 264, (S)-2-((1-(6-((4-(Acetamidomethyl)benzyl)thio)-3,5-dicyano-4-ethylpyridin-2-yl)piperidin-4-yl)oxy)ethyl 2-amino-3-methylbutanoate], the IC50 at DNMT1 (setting [2]) is 1000 to 31600 nM. For the same compound, in test [1], the EC50 was greater than 31600 nM.
In the case of `CCc1c(C#N)c(SC(C(N)=O)c2ccccc2)nc(N2CCC(N3CCOCC3)CC2)c1C#N` (stereo not drawn) [Example 503, 2-((3,5-dicyano-4-ethyl-6-(4-morpholinopiperidin-1-yl)pyridin-2-yl)thio)-2-phenylacetamide], the “DNMT1 BioChemical (pIC50 category)” value on DNMT1 (setting [3]) was “D (Category D: ≥6.5)”. In test [1], the EC50 was 316 to 1000 nM.
With `CCc1c(C#N)c(SC(C(N)=O)c2ccccc2)nc(N(C)CCN2CCC[C@@H]2CO)c1C#N` (stereo partly drawn) [Example 479, 2-((3,5-dicyano-4-ethyl-6-((2-((R)-2-(hydroxymethyl)pyrrolidin-1-yl)ethyl)(methyl)amino)pyridin-2-yl)thio)-2-phenylacetamide], on DNMT1 (setting [3]), the “DNMT1 BioChemical (pIC50 category)” value is “D (Category D: ≥6.5)”. Further, the EC50 in test [1] is less than 316 nM.
